This is an account of results in patent US10604523B2, “1-aryl-4-methyl-[1,2,4]triazolo[4,3-a]quinoxaline derivatives” (Janssen Pharmaceutica NV, priority 2011, dated 2020).

SMILES strings stand for the structures. A value given as a limit tells only on which side of the number the result lay.

Test [1] addresses T1, Human recombinant PDE2A (hPDE2A) (Homo sapiens, UniProt O00408).
T1 construct: made in house; host or cells: Sf9 insect cells (baculovirus)
Nature of the test: In vitro assay PDE2A (SPA, 3H-cGMP). Format: biochemical. As to conditions: read-out: pIC50 PDE2 (converted).

Test [2] addresses T2, Rat recombinant PDE10A (rPDE10A2) (Rattus norvegicus, UniProt Q9QYJ6).
T2 construct: made in house; host or cells: Sf9 insect cells (baculovirus)
T2 sequence (Q9QYJ6 1-794): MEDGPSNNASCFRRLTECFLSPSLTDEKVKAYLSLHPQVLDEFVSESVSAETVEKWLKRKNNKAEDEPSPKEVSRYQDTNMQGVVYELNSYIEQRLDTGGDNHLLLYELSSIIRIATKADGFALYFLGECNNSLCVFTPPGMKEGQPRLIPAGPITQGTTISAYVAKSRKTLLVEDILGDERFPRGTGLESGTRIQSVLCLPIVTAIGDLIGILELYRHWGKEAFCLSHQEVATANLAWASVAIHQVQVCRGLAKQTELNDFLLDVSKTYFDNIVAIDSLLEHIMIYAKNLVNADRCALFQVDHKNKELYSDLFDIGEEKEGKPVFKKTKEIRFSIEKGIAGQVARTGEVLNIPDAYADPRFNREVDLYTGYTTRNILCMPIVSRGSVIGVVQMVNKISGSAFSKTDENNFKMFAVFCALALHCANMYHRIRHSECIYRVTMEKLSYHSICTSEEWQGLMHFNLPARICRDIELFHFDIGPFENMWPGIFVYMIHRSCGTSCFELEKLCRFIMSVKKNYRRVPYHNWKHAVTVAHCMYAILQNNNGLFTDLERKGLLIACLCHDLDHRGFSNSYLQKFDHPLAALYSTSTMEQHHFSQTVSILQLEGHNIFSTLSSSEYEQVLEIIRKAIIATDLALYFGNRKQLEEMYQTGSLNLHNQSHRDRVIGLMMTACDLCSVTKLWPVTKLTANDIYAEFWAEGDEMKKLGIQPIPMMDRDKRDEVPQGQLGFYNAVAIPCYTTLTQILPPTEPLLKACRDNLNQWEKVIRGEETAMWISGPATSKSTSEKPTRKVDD
As to the kind of experiment: In vitro assay PDE10A (SPA, 3H-cAMP). In kind it is biochemical. The note with it: read-out: PIC50 PDE10 (converted).

T1 sequence (O00408 whole entry): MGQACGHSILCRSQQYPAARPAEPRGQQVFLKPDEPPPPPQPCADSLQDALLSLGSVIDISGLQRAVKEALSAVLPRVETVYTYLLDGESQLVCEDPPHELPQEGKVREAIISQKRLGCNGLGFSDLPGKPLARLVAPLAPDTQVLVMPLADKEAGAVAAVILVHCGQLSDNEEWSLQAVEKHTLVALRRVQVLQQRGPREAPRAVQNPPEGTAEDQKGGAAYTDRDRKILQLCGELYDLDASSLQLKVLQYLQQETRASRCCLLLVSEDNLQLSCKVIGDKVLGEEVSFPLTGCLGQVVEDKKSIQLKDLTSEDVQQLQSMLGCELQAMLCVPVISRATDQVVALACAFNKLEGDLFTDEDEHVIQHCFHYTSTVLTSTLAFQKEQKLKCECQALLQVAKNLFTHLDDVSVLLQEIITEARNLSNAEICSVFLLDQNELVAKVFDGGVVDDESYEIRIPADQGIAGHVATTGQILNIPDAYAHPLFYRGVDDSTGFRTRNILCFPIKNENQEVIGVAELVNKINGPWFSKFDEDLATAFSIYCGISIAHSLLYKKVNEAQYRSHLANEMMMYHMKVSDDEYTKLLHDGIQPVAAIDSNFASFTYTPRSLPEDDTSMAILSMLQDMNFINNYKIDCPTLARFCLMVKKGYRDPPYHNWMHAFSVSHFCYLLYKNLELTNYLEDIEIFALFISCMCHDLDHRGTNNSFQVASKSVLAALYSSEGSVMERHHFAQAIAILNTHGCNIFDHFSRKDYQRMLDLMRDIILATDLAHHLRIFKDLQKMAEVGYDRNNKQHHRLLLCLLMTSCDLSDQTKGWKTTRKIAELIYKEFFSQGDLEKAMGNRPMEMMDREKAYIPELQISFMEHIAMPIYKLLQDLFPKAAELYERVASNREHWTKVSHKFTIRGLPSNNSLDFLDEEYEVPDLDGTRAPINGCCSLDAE

For the molecule `CCCOc1ccc(Cl)c(-c2nnc3c(C)nc4ccc(OC[C@@H]5CCCN5)cc4n23)c1` [Compound B-161], the values for the IC50 in test [1] and in test [2] were 60.3 nM and 8710 nM, respectively.
For `Cc1nc2ccc(CN3CCOCC3)cc2n2c(-c3cncc(OCCCF)c3)nnc12` [Compound B-196], the IC50 in test [1] was 64.6 nM; in test [2], 8710 nM.
For `Cc1nc2ccc(CN3CCC(F)CC3)cc2n2c(-c3cc(OC(C)C)ccc3Cl)nnc12` [Compound B-134], the IC50 is 30.2 nM in test [1] and 1100 nM in test [2].
Taken in the same sequence, the figures for `Cc1cncc(-c2nnc3c(C)nc4ccc(Br)cc4n23)c1` [Compound B-154] were 52.5 nM and 380 nM.
Regarding `Cc1nc2ccc(N(C)C)cc2n2c(-c3ccccc3Cl)nnc12` [Compound B-87], the IC50 in test [1] is 11.2 nM; in test [2] it was 26.9 nM.
`Cc1nc2ccc(N3CCN(C)CC3)cc2n2c(-c3cc(OC(C)C)ccc3Cl)nnc12` [Compound B-115]: the IC50 is 24.5 nM in test [1] and 1120 nM in test [2].
Taken in the same sequence, the figures for `Cc1nc2ccc(C(=O)OCCCc3ccccc3)cc2n2c(-c3ccccc3)nnc12` [Compound B-158] were 60.3 nM and 603 nM.
On to `CCCOc1ccc(Cl)c(-c2nnc3c(C)nc4ccc(CNc5cccnc5)cc4n23)c1` [Compound B-138], for which the results for the IC50 in test [1] and in test [2] were 33.9 nM and 708 nM, respectively.
The matching figures for `COc1cncc(-c2nnc3c(C)nc4ccc(OC(F)(F)F)cc4n23)c1` [Compound B-165]: 81.3 nM and 501 nM.
Regarding `CCCCOc1ccc(Cl)c(-c2nnc3c(C)nc4ccc(OCCc5cccnc5)cc4n23)c1` [Compound B-130], the values for the IC50 in test [1] and in test [2] were 28.8 nM and 977 nM, respectively.
As for `Cc1nc2ccc(Br)cc2n2c(-c3cncc(OCC4CC4)c3)nnc12` [Compound B-125], the IC50 in test [1] is 27.5 nM; in test [2], 3090 nM.
In the case of `Cc1nc2ccc(C(=O)OCc3ccccc3)cc2n2c(-c3ccccc3)nnc12` [Compound B-8, Benzyl 4-methyl-1-phenyl[1,2,4]triazolo[4,3-a]quinoxaline-8-carboxylate], the IC50 in test [1] is 20.4 nM; in test [2], 380 nM.
Regarding `CCCCOc1ccc(Cl)c(-c2nnc3c(C)nc4ccc(CNC5CCC5)cc4n23)c1` [Compound B-126], the results for the IC50 in test [1] and in test [2] were 28.2 nM and 2450 nM, respectively.
The matching figures for `Cc1nc2ccc(CNc3cccnc3)cc2n2c(-c3cc(OC(C)C)ccc3Cl)nnc12` [Compound B-133]: 30.2 nM and 1230 nM.
For `CCCCOc1cncc(-c2nnc3c(C)nc4ccc(CNC5CCC5)cc4n23)c1` [Compound B-155], the IC50 in test [1] is 60.3 nM; in test [2], 9120 nM.
With `Cc1nc2ccc(Oc3ccncc3)cc2n2c(-c3ccccc3Cl)nnc12` [Compound B-30, 1-(2-Chlorophenyl)-4-methyl-8-(pyridin-4-yloxy)[1,2,4]triazolo[4,3-a]quinoxaline], the IC50 was 5.75 nM in test [1] and 24.5 nM in test [2].
Regarding `CCOC(=O)c1ccc2c(c1)nc(C)c1nnc(-c3ccccc3Cl)n12` [Compound B-1b, ethyl 1-(2-chlorophenyl)-4-methyl[1,2,4]triazolo[4,3-a]quinoxaline-7-carboxylate], the IC50 in test [1] was 51.3 nM; in test [2], 447 nM.
For the molecule `CCNC(=O)c1ccc2c(c1)nc(C)c1nnc(-c3cccnc3C)n12` [Compound B-169], the values for the IC50 in test [1] and in test [2] were 102 nM and 2820 nM, respectively.
Turning to `CCNC(=O)c1ccc2c(c1)nc(C)c1nnc(-c3cccnc3OC)n12` [Compound B-180], the IC50 was 204 nM in test [1] and 1780 nM in test [2].
The matching figures for `Cc1nc2ccc(C(=O)OCCc3ccccc3)cc2n2c(-c3ccccc3)nnc12` [Compound B-122]: 27.5 nM and 331 nM.
With `CCC(=O)Nc1ccc2nc(C)c3nnc(-c4ccccc4Cl)n3c2c1` [Compound B-28, N-[1-(2-Chlorophenyl)-4-methyl[1,2,4]triazolo[4,3-a]quinoxalin-8-yl]propanamide], the IC50 in test [1] is 2.29 nM; in test [2], 13.2 nM.
As for `CCOCc1cncc(-c2nnc3c(C)nc4ccc(CN(C)C)cc4n23)c1` [Compound B-212], the IC50 in test [1] is 355 nM; in test [2] it was 6170 nM.
For the molecule `Cc1nc2ccc(Br)cc2n2c(-c3ccccc3OC(F)(F)F)nnc12` [Compound B-159], the results for the IC50 in test [1] and in test [2] were 60.3 nM and 347 nM, respectively.
`Cc1nc2ccc(CN3CCOCC3)cc2n2c(-c3cncc(OCCF)c3)nnc12` [Compound B-195]: the IC50 is 42.7 nM in test [1] and 3550 nM in test [2].
On to `CCCCOc1ccc(Cl)c(-c2nnc3c(C)nc4ccc(CN5CCC(F)CC5)cc4n23)c1` [Compound B-132], for which the IC50 in test [1] was 29.5 nM; in test [2], 1780 nM.
The matching figures for `CCNC(=O)c1ccc2nc(C)c3nnc(-c4cccnc4OC)n3c2c1` [Compound B-123]: 27.5 nM and 417 nM.
For `Cc1nc2ccc(Br)cc2n2c(-c3cccc(Cl)c3Cl)nnc12` [Compound B-166], the IC50 is 95.5 nM in test [1] and 282 nM in test [2].
`Cc1nc2ccc(OCCc3cccnc3)cc2n2c(-c3cc(OC(C)C)ccc3Cl)nnc12` [Compound B-146]: the values for the IC50 in test [1] and in test [2] were 40.7 nM and 1020 nM, respectively.
The matching figures for `CCNC(=O)c1ccc2nc(C)c3nnc(-c4ccc(C)nc4)n3c2c1` [Compound B-182]: 240 nM and 4170 nM.
Turning to `CCNC(=O)c1ccc2c(c1)nc(C)c1nnc(-c3cncc(OC)c3)n12` [Compound B-172], the IC50 was 126 nM in test [1] and 7760 nM in test [2].
In the case of `Cc1nc2ccc(CNC3CCC3)cc2n2c(-c3cncc(OCC4CC4)c3)nnc12` [Compound B-207], the IC50 was 240 nM in test [1] and above 10000 nM in test [2].
In the case of `CCCCOc1ccc(Cl)c(-c2nnc3c(C)nc4ccc(CN5CCCC5)cc4n23)c1` [Compound B-79], the IC50 in test [1] was 8.13 nM; in test [2], 1910 nM.
Take `Cc1nc2ccc(N)cc2n2c(-c3ccccc3Cl)nnc12` [Compound B-27, 1-(2-Chlorophenyl)-4-methyl[1,2,4]triazolo[4,3-a]quinoxalin-8-amine]: the IC50 in test [1] is 2.34 nM; in test [2] it was 29.5 nM.
As to `COc1cncc(-c2nnc3c(C)nc4ccc(Br)cc4n23)c1` [Compound B-124], the IC50 in test [1] is 27.5 nM; in test [2] it was 355 nM.
Take `CCCOc1ccc(Cl)c(-c2nnc3c(C)nc4ccc(CN5CCC(F)CC5)cc4n23)c1` [Compound B-135]: the IC50 is 30.2 nM in test [1] and 589 nM in test [2].
On to `CCCCOc1ccc(Cl)c(-c2nnc3c(C)nc4ccc(CN5CCN(C)CC5)cc4n23)c1` [Compound B-160], for which the IC50 in test [1] is 60.3 nM; in test [2] it was 2450 nM.
For `CCCOc1ccc(Cl)c(-c2nnc3c(C)nc4ccc(CN5CCN(C)CC5)cc4n23)c1` [Compound B-137], the IC50 is 33.1 nM in test [1] and 1000 nM in test [2].
As to `CCCCOc1ccc(Cl)c(-c2nnc3c(C)nc4ccc(CNCC5CC5)cc4n23)c1` [Compound B-152], the IC50 in test [1] was 50.1 nM; in test [2], 3890 nM.
For the molecule `CCCOc1ccc(Cl)c(-c2nnc3c(C)nc4ccc(OCCc5cccnc5)cc4n23)c1` [Compound B-116], the IC50 in test [1] is 24.5 nM; in test [2], 513 nM.
